{
  "source": "patent US11434490B2",
  "about": "“Fluorogen-binding RNA aptamers” (CENTRE NATIONAL DE LA RECHERCHE SCIENTIFIQUE, priority 2017, dated 2022)",
  "key": {"HEK293T cells": {"system": "HEK293T cells", "test": "Cellular imaging of transfected Mango tagged RNAs", "type": "cell-based", "details": "against 5S-F30-Mango-IV", "protocol": "HEK293T cells were grown in Dulbecco Modified Eagle's Medium containing 10% Fetal Bovine Serum, 2 mM D-Glucose, 2 mM L-Glutamine, 1 mM Sodium Pyruvate and 100 U/ml Penicillin/Streptomycin (Thermo Fisher) and maintained at 37° C. with 5% CO2 in a humidified incubator. Cells used for imaging were cultured in Ibidi glass bottomed 8-well chamber slides (Ibidi GmbH).\nRNA was transfected directly into 8-well chamber slides using the Lipofectamine-based CRISPRMAX reagent following the manufacturers guidelines (Invitrogen). Initially 125 nM RNA containing 10 mM Sodium Phosphate buffer (pH 7.2), 100 mM KCl and 1 mM MgCl2 was incubated at room temperature followed by a 1:1 dilution in OptiMEM prior to transfection. The RNA transfected was incubated at 37° C. for 1 hour in complete growth medium.\nCells were fixed in PBS containing 4% paraformaldehyde for 10 min on ice (Thermo Fisher) followed by permeabilization in 0.2% Triton X-100 for 10 min at room temperature. Cells were first blocked (2% BSA in PBS) for 30 min followed by primary antibody (1:50-1:500 dilutions) incubation for 120 min in blocking solution.\nPrimary antibodies used here were: Anti-Ribosomal Protein S6 (MAB5436, R&D Systems), Anti-ATP5B (ab14730, Abcam), Anti-GW182 (ab7052, Abcam), Anti-EEA-1 (ab70521, Abcam), Anti-LSm3 (NBP2-14206, Novus Biologicals), Anti-TIAR (sc-398372, Santa Cruz). Secondary antibodies used were Donkey Anti-mouse and Donkey Anti-Rabbit Alexa Fluor 680 (Molecular Probes). Primary antibodies were washed three times for 20 min each in blocking solution followed by incubation with secondary antibody at 1:500 dilution for 60 min, which was subsequently washed as above.\nTo visualize the nuclear boundary in live cells, a plasmid expressing a fluorescently tagged histone protein (EBFP2-H2B-6, Addgene plasmid 55243) was transfected using FuGene 6 (Promega) 24 h prior to RNA transfection. […] Following incubation of the RNA transfection, the cells were washed once with PBS and replaced with live-cell imaging media (Fluorobrite DMEM supplemented with 20 mM HEPES, Invitrogen). Live and fixed cell images were taken using a Zeiss Elyra wide-field microscope by exciting at 405 nm (Blue), 488 nm (Green) and 642 nm (Far-Red) and detecting at 420-480 nm, 495-550 nm and >650 nm, respectively. Live cells were maintained at 37° C. with 5% CO2 in a stage top incubator (Tokai Hit). Images were processed using FIJI and spot detection analysis was performed on each maximum projection by the spot detector plugin in the ICY image analysis software, which detects significant foci with a pixel area 3×3 pixels."}, "[1]": {"test": "In vitro fluorescence of Mango tagged RNA constructs", "type": "biochemical", "details": "40 nM TO1-Biotin, 200 nM RNA", "excerpt": "FIG. 14|RNA scaffold diagrams. Diagrams of the 5S-Mango and U6-Mango constructs synthesized (sequences in Table 2) and their fluorescence emission as a function of wavelength after excitation at 505 nm, compared to unmodified Mango I-IV.\nDNA encoding the F30 folding scaffold was modified to incorporate the Mango RNA sequences and ordered from (Intergrated DNA Technologies). The DNA was amplified by PCR to incorporate 5′ SalI and 3′ Xbal restriction sites. PCR products were digested using Fast Digest enzymes (Thermo Fisher) and ligated into SalI/Xbal linearized and Shrimp Alkaline Phosphotase (NEB) treated pAV5S-F30-2xdBroccoli (Addgene plasmid 66845, a gift from Dr S. Jaffrey). DNA encoding the full 5S-F30-Mango sequence was PCR amplified and a 5′ T7 RNA polymerase promoter introduced. DNA was transcribed in vitro with T7 RNA polymerase (NEB) at 37° C. for 16 h in 40 mM Tris-HCl, 30 mM MgCl2, 2 mM spermidine, 1 mM dithiothreitol, 5 mM rNTPs, 1 U/μl E. coli inorganic pyrophosphotase, 4 U/μl T7 RNA polymerase (pH 7.9). RNA was purified from an 8 M urea denaturing polyacrylamide […] gel followed by elution in RNA elution buffer (40 mM Tris-HCl pH 8.0, 0.5 M sodium acetate, 0.1 mM EDTA) and ethanol precipitation."}},
  "data": [
    {"substance": "U6-Mango-IV: U6 snRNA with Mango-IV in an internal stem loop; SEQ ID NO: 6896 [Mango U6-Mango-IV]", "values": [
      {"measurement": "increase of the fraction of nuclear foci", "setting": "HEK293T cells", "value": "~9", "unit": "fold"},
      {"measurement": "fluorescence intensity in vitro", "setting": "[1]", "value": "comparable fluorescence intensity to Mango IV alone"}
    ]}
  ]
}
